Measured values as given in ChEMBL document CHEMBL1137169, “P4 cap modified tetrapeptidyl alpha-ketoamides as potent HCV NS3 protease inhibitors” (Bioorg Med Chem Lett, 2004).

Assays:
NS3 = NS3 (Hepatitis C virus, UniProt A3EZJ3); assay: Inhibitory potency against HCV NS3 protease; design: species or system Hepacivirus hominis
Cell line = assay: inhibitory concentration in luciferase based replicon assay; assay type: functional; details: Homo sapiens
Huh-7 = assay: Cytotoxic concentration against Huh-7 liver cell line; assay type: functional; details: Homo sapiens
[1] = biological target: T1, Neutrophil elastase (Homo sapiens) (UniProt P08246); assay: Selectivity for human neutrophil elastase
T1 sequence (whole entry): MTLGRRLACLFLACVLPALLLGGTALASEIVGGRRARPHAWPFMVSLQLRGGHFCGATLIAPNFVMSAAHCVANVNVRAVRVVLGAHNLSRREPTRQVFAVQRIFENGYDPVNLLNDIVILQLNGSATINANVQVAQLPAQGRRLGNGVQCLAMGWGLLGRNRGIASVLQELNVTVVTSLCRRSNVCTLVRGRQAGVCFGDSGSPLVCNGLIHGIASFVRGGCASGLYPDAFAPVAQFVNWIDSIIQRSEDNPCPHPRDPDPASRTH

Sequence of NS3 (A3EZJ3 whole entry): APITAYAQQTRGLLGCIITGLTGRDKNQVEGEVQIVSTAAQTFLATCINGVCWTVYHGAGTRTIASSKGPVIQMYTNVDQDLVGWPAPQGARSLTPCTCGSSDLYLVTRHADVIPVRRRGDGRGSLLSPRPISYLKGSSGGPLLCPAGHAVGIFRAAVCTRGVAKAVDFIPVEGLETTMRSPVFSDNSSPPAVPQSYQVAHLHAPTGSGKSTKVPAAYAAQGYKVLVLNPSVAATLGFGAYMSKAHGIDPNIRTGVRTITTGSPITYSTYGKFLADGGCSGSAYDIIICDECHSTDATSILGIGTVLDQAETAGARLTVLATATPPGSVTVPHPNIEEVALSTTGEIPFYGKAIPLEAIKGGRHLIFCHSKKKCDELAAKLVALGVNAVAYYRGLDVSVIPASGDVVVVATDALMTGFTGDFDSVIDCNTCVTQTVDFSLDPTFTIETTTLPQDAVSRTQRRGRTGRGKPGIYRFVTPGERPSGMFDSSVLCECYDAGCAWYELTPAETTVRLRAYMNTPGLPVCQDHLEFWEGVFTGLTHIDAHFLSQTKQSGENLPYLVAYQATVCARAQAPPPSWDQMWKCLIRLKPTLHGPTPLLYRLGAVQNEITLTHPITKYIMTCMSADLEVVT

Row | Structure (SMILES) | Ki (NS3) | IC50 (Cell line) | Selectivity [1] | CC50 (Huh-7)
1 | CCCC(NC(=O)[C@@H]1C2CCCC2CN1C(=O)[C@@H](NC(=O)[C@@H](NC(=O)Cc1nn[nH]n1)C1CCCCC1)C(C)(C)C)C(=O)C(=O)NC1CC1 (some centres undefined) | 30 nM | > 50000 nM |  | > 50000 nM
2 | CCC[C@H](NC(=O)[C@@H]1C2CCCC2CN1C(=O)[C@@H](NC(=O)[C@@H](NC(=O)c1cnccn1)C(C)C)C(C)C)C(=O)C(=O)NC1CC1 (some centres undefined) | 123 nM | 11600 nM |  | > 50000 nM
3 | CCCC(NC(=O)[C@@H]1CC(OC(=O)N2CCc3ccccc3C2)CN1C(=O)[C@@H](NC(=O)[C@@H](NC(=O)CCCCC(=O)OC)C(C)C)C(C)C)C(=O)C(=O)NC1CC1 (some centres undefined) | 271 nM |  |  | 
4 | CCC[C@H](NC(=O)[C@@H]1C2CCCC2CN1C(=O)[C@@H](NC(=O)[C@@H](NC(=O)Cc1nn[nH]n1)C(C)C)C(C)(C)C)C(=O)C(=O)NC1CC1 (some centres undefined) | 808 nM |  |  | 
5 | CCC[C@H](NC(=O)[C@@H]1C2CCCC2CN1C(=O)[C@@H](NC(=O)[C@@H](NC(=O)Cc1nn[nH]n1)[C@@H](C)CC)C(C)(C)C)C(=O)C(=O)NC1CC1 (some centres undefined) | 3110 nM | > 50000 nM |  | > 50000 nM
6 | CCCC(NC(=O)[C@@H]1CC(OC(=O)N2CCc3ccccc3C2)CN1C(=O)[C@@H](NC(=O)[C@@H](NC(=O)CCCCC(=O)NC)C(C)C)C(C)C)C(=O)C(=O)NC1CC1 (some centres undefined) | 193 nM |  | 4 | > 10000 nM
7 | CCCC(NC(=O)[C@@H]1CC(OC(=O)N2CCc3ccccc3C2)CN1C(=O)[C@@H](NC(=O)[C@@H](NC(=O)CCCCC(=O)O)C(C)C)C(C)C)C(=O)C(=O)NC1CC1 (some centres undefined) | 65 nM | > 50000 nM |  | > 50000 nM
8 | CCC[C@H](NC(=O)[C@@H]1C2CCCC2CN1C(=O)[C@@H](NC(=O)[C@@H](NC(=O)CCCCc1nn[nH]n1)C(C)C)C(C)C)C(=O)C(=O)NC1CC1 (some centres undefined) | 170 nM |  |  | 
9 | CCC(C=O)NC(=O)[C@@H]1CC(OC(=O)c2ccc3ccccc3c2)CN1C(=O)[C@@H](NC(=O)[C@@H](NC(=O)CCCCC(=O)O)C(C)C)C(C)C (some centres undefined) | 110 nM |  |  | 

More lines, main results first:

Row | Ki (NS3) | IC50 (Cell line) | Selectivity [1] | Structure (SMILES) | CC50 (Huh-7)
10 | 31 nM | > 50000 nM |  | CCCC(NC(=O)[C@@H]1C2CCCC2CN1C(=O)[C@@H](NC(=O)[C@@H](NC(=O)CCCCc1nnn[nH]1)C(C)C)C(C)C)C(=O)C(=O)N[C@@H](C)c1ccccc1 (stereo in doubt; 12) | > 50000 nM
11 | 27 nM |  |  | CCCC(NC(=O)[C@@H]1C2CCCC2CN1C(=O)[C@@H](NC(=O)[C@@H](NC(=O)CCCCc1nnn[nH]1)C(C)C)C(C)C)C(=O)C(=O)N[C@@H](C)c1ccccc1 (stereo in doubt; 13) | 
12 | 248 nM | > 50000 nM |  | CCCC(NC(=O)[C@@H]1C2CCCC2CN1C(=O)[C@@H](NC(=O)[C@@H](NC(=O)CCCCc1nnn[nH]1)C(C)C)C(C)C)C(=O)C(=O)NC(C)CC (some centres undefined) | > 50000 nM
13 | 112 nM |  |  | CCCC(NC(=O)[C@@H]1C2CCCC2CN1C(=O)[C@@H](NC(=O)[C@@H](NC(=O)CCCCc1nnn[nH]1)C(C)C)C(C)C)C(=O)C(=O)N[C@@H](C)c1ccncc1 (some centres undefined) | 
14 | 82 nM |  |  | CCC[C@H](NC(=O)[C@@H]1C2CCCC2CN1C(=O)[C@@H](NC(=O)[C@@H](NC(=O)CCCCc1nn[nH]n1)C(C)C)C(C)C)C(=O)C(=O)NC(=O)CN (some centres undefined) | 
15 | 22 nM |  | 1180 | CCCC(NC(=O)[C@@H]1C2CCCC2CN1C(=O)[C@@H](NC(=O)[C@@H](NC(=O)CCCCc1nnn[nH]1)C(C)C)C(C)C)C(=O)C(=O)Nc1ccccc1 (some centres undefined) | > 10000 nM
16 |  | > 50000 nM | 7 | CCC[C@H](NC(=O)[C@@H]1C2CCCC2CN1C(=O)[C@@H](NC(=O)[C@@H](NC(=O)CCCCc1nnn[nH]1)C(C)C)C(C)C)C(=O)C(=O)NC1CC1 (some centres undefined) | > 50000 nM
